Data as given in PubChem BioAssay AID1996.
Converted amounts (≈) assume the structure as drawn.

Conditions: buffer; pH 7.4; 200.0 µM

For `CN(CCc1ccccc1)Cc1c[nH]c2ccccc12.O=C(O)C(=O)O`, which solubility kinetic is on record?
The solubility kinetic was over 53.2 µg/mL.

With `Cc1ccc2nc(-c3ccncc3)cc(C(=O)Nc3ccncc3)c2c1` as the molecule, how does the solubility kinetic read?
The solubility kinetic was 3.5 µg/mL (≈ 10.3 µM).

For `O=C(NCCO)/C(=C\c1ccco1)NC(=O)c1ccco1`, which solubility kinetic is on record?
Its solubility kinetic is 35 µg/mL (≈ 121 µM).

For `O=C(COc1ccc2ccc(=O)oc2c1)Nc1nccs1`, which solubility kinetic is on record?
Its solubility kinetic is 11.3 µg/mL (≈ 37.4 µM).

Which solubility kinetic does the source give for `CC(C)(C)C(=O)NC1CCSC1=O` (stereo unspecified) here?
Its solubility kinetic is over 30.2 µg/mL.

For `O=C(CN1CCN(C(=O)c2ccccc2)CC1)NC(=O)NCCC1=CCCCC1`, which solubility kinetic is on record?
Its solubility kinetic is over 59.8 µg/mL.

For `O=c1c([N+](=O)[O-])cccn1Cc1cccc(Cl)c1`, which solubility kinetic is on record?
The solubility kinetic was over 39.7 µg/mL.

With `Cc1ccc2oc(Nc3nc(C)c(C)c(C)n3)nc2c1` as the molecule, how does the solubility kinetic read?
Its solubility kinetic is 2.4 µg/mL (≈ 8.94 µM).

For `COc1ccc([N+](=O)[O-])cc1C(=O)C(=O)c1ccccc1`, which solubility kinetic is on record?
Its solubility kinetic is under 0.6 µg/mL.

Which solubility kinetic does the source give for `Cc1onc(-c2ccccc2Cl)c1C(=O)OCC(=O)N1CCC(C)CC1` here?
Its solubility kinetic is over 56.5 µg/mL.

For `NS(=O)(=O)c1cccc(NC(=O)COC(=O)CCC2CCCC2)c1`, which solubility kinetic is on record?
The solubility kinetic was over 53.2 µg/mL.

Which solubility kinetic does the source give for `COc1cc(OC)cc(C(=O)Nc2cccc3c2CCCC3)c1` here?
Its solubility kinetic is under 0.7 µg/mL.

With `COc1cc(C(N)=O)cc(Cl)c1OC` as the molecule, how does the solubility kinetic read?
The solubility kinetic was over 32.3 µg/mL.

For `CCOc1cc(C(N)=O)cc(Br)c1OCc1ccccc1`, which solubility kinetic is on record?
The solubility kinetic was 12.8 µg/mL (≈ 36.5 µM).

For `COC(=O)c1c(C)oc(C)c1S(=O)(=O)NCC1CC1`, which solubility kinetic is on record?
Its solubility kinetic is over 43.1 µg/mL.

For `S=c1[nH]nc(Nc2ccccc2Cl)s1`, which solubility kinetic is on record?
Its solubility kinetic is over 36.6 µg/mL.

For `Cc1ccc(NCC(=O)N/N=C/c2ccc(C(=O)O)cc2)cc1`, which solubility kinetic is on record?
The solubility kinetic was over 46.7 µg/mL.

Which solubility kinetic does the source give for `CN(CC(=O)Nc1ccc(F)cc1)CC(=O)N1CCCCCC1` here?
The solubility kinetic was 44.8 µg/mL (≈ 139 µM).

With `O=C(Nc1ccc(Cl)c(Cl)c1)c1ccc2c(c1)OCO2` as the molecule, how does the solubility kinetic read?
Its solubility kinetic is under 0.7 µg/mL.

For `O=C(CSc1ccccc1)Nc1ccc2c(c1)OCCO2`, which solubility kinetic is on record?
The solubility kinetic was over 45.2 µg/mL.

Which solubility kinetic does the source give for `COC(=O)c1ccc(N/C=C/C(=O)c2ccccc2)cc1` here?
The solubility kinetic was 1.5 µg/mL (≈ 5.33 µM).

With `O=C1OC(CO)CN1Cc1ccccc1` (stereo unspecified) as the molecule, how does the solubility kinetic read?
Its solubility kinetic is 30.3 µg/mL (≈ 146 µM).

For `COc1ccc(OC)c(CNc2ccc3c(c2)nc(C)n3C)c1`, which solubility kinetic is on record?
Its solubility kinetic is 37.1 µg/mL (≈ 119 µM).

With `COc1ccc(C(=O)/C=C2\Sc3ccccc3N2C)cc1` as the molecule, how does the solubility kinetic read?
The solubility kinetic was 0.7 µg/mL (≈ 2.35 µM).

Which solubility kinetic does the source give for `N#Cc1ccccc1OCC(=O)Nc1ccc2c(c1)OCCCO2` here?
The solubility kinetic was over 48.7 µg/mL.

With `Cc1cc(C(=O)Nc2ccc3c(c2)OCCO3)ccc1[N+](=O)[O-]` as the molecule, how does the solubility kinetic read?
Its solubility kinetic is under 0.3 µg/mL.

With `CCn1c(O)c(C=NC2CCCC(C)C2C)sc1=S` (stereo unspecified) as the molecule, how does the solubility kinetic read?
Its solubility kinetic is 4.3 µg/mL (≈ 14.4 µM).

Which solubility kinetic does the source give for `COc1ccc(-c2cc(C(=O)N3CCCCC3)c3ccccc3n2)cc1OC` here?
The solubility kinetic was 51.6 µg/mL (≈ 137 µM).

Which solubility kinetic does the source give for `Cc1cc(C)cc(NC(=O)c2cccc(NC(=O)c3ccco3)c2)c1` here?
The solubility kinetic was 1 µg/mL (≈ 2.99 µM).

For `CCOC(=O)C1CCCN(Cc2nc(C3CC3)no2)C1` (stereo unspecified), which solubility kinetic is on record?
Its solubility kinetic is 36.5 µg/mL (≈ 131 µM).

With `Cc1ccsc1C(=O)OCC(=O)NC1CCS(=O)(=O)C1` (stereo unspecified) as the molecule, how does the solubility kinetic read?
Its solubility kinetic is over 47.6 µg/mL.

With `CN(C(=O)COC(=O)c1cccnc1Cl)C1CCCCC1` as the molecule, how does the solubility kinetic read?
Its solubility kinetic is over 46.6 µg/mL.

Which solubility kinetic does the source give for `Cc1ccc(NC(=O)C(=O)c2c[nH]c3ccccc23)cc1` here?
Its solubility kinetic is under 0.3 µg/mL.

With `CC(=O)c1ccc(NC(=S)NC(=O)Cc2ccc(Cl)cc2)cc1` as the molecule, how does the solubility kinetic read?
The solubility kinetic was 0.4 µg/mL (≈ 1.15 µM).

For `CCOc1ccc(NC(=O)/C(C=Nc2ccccc2)=C(\C)O)cc1`, which solubility kinetic is on record?
The solubility kinetic was 1 µg/mL (≈ 3.08 µM).

Which solubility kinetic does the source give for `CCCOc1ccccc1/C=C1\SC(N)=NC1=O` here?
The solubility kinetic was 2.1 µg/mL (≈ 8.01 µM).

For `Cc1ccccc1C(=O)Nc1ccccc1C(=O)N1CCC(C)CC1`, which solubility kinetic is on record?
Its solubility kinetic is 32.9 µg/mL (≈ 97.8 µM).

For `COc1ccccc1CN1CCN(S(=O)(=O)c2ccc(C)cc2)CC1`, which solubility kinetic is on record?
The solubility kinetic was 1 µg/mL (≈ 2.77 µM).

For `Clc1cc(Cl)cc(Nc2ncnc(-n3cccc3)n2)c1`, which solubility kinetic is on record?
Its solubility kinetic is under 0.1 µg/mL.

With `CCOC(=O)C(=O)Nc1ccc(OCc2ccccc2)cc1` as the molecule, how does the solubility kinetic read?
The solubility kinetic was 30.2 µg/mL (≈ 101 µM).

Which solubility kinetic does the source give for `CC(C)c1ccc(OCC(=O)Nc2ccncc2)cc1` here?
Its solubility kinetic is 38.8 µg/mL (≈ 144 µM).

For `CSc1nc2ccc(NC(=O)c3cccs3)cc2s1`, which solubility kinetic is on record?
Its solubility kinetic is 2.7 µg/mL (≈ 8.81 µM).

Which solubility kinetic does the source give for `Cn1c(C2=C(O)CN(Cc3ccccc3)C2=N)[n+](C)c2ccccc21.[Cl-]` here?
The solubility kinetic was 48.2 µg/mL.

Which solubility kinetic does the source give for `O=C(NCCc1ccc(F)cc1)N[C@@H](Cc1ccccc1)C(=O)O` here?
Its solubility kinetic is over 49.6 µg/mL.

For `O=C(NCC1CCCCC1)c1cc2ccccc2cc1O`, which solubility kinetic is on record?
The solubility kinetic was 9.7 µg/mL (≈ 34.2 µM).

With `CCN(CC)Cc1cc(O)c(CN(CC)CC)cc1O` as the molecule, how does the solubility kinetic read?
Its solubility kinetic is over 42.1 µg/mL.

For `Cc1cc(Cc2c(O)[nH]c(=S)[nH]c2=O)ccc1OC(C)C`, which solubility kinetic is on record?
The solubility kinetic was 34.8 µg/mL (≈ 114 µM).

With `COc1ccccc1-c1nc2cc(Cl)ccc2c(=O)n1O` as the molecule, how does the solubility kinetic read?
Its solubility kinetic is over 45.4 µg/mL.

Which solubility kinetic does the source give for `CN(C)CCCNc1oc(-c2ccc(Cl)cc2)nc1S(=O)(=O)c1ccccc1` here?
The solubility kinetic was over 63 µg/mL.

For `O=C(Cn1cc(C(=O)c2ccccc2F)c2ccccc21)NC1CC1`, which solubility kinetic is on record?
Its solubility kinetic is 2 µg/mL (≈ 5.95 µM).

For `CCc1ccccc1NC(=O)c1cc(-c2ccc(OC)cc2)on1`, which solubility kinetic is on record?
Its solubility kinetic is under 0.3 µg/mL.

For `O=S(=O)(c1ccc2oc(=S)[nH]c2c1)N1CCCCC1`, which solubility kinetic is on record?
The solubility kinetic was over 44.8 µg/mL.

Which solubility kinetic does the source give for `COc1ccc(NC(=O)c2ccc3ccccc3c2OC)cc1` here?
Its solubility kinetic is under 0.7 µg/mL.

Which solubility kinetic does the source give for `CC(C)n1c(COc2ccccc2)nc2ccccc21` here?
Its solubility kinetic is 24.1 µg/mL (≈ 90.5 µM).

Which solubility kinetic does the source give for `CCOC(=O)c1sc(NC(=O)c2ccc3nc[nH]c3c2)nc1C` here?
The solubility kinetic was 3.7 µg/mL (≈ 11.2 µM).

Which solubility kinetic does the source give for `Cl.c1ccc2c(c1)nc1n2CCN1CCN1CCCC1` here?
The solubility kinetic was over 49.4 µg/mL.

For `Cc1cccc(C(=O)Nc2ccc(NC(=O)c3ccccc3)cc2)c1`, which solubility kinetic is on record?
The solubility kinetic was 1 µg/mL (≈ 3.03 µM).

With `CC(NS(=O)(=O)c1ccc(Cl)c(Cl)c1)C(=O)Nc1cccnc1` (stereo unspecified) as the molecule, how does the solubility kinetic read?
The solubility kinetic was over 56.1 µg/mL.

For `O=C(COc1ccccc1Br)N1CCNC1=O`, which solubility kinetic is on record?
Its solubility kinetic is 42.2 µg/mL (≈ 141 µM).

With `O=C(COc1ccc(Cl)cc1)NCCN1CCCCC1` as the molecule, how does the solubility kinetic read?
The solubility kinetic was over 44.5 µg/mL.

For `NC(=O)c1ccc(NC(=O)COC(=O)c2ccc3ccccc3n2)cc1`, which solubility kinetic is on record?
The solubility kinetic was 18.8 µg/mL (≈ 53.8 µM).
